“And” between values parts separate entries of the source, which are not always exact repeats. Equal entries are not always repeated.

One data set addresses T1, FAP (Homo sapiens, UniProt Q12884).
T1 sequence (Q12884 1-760): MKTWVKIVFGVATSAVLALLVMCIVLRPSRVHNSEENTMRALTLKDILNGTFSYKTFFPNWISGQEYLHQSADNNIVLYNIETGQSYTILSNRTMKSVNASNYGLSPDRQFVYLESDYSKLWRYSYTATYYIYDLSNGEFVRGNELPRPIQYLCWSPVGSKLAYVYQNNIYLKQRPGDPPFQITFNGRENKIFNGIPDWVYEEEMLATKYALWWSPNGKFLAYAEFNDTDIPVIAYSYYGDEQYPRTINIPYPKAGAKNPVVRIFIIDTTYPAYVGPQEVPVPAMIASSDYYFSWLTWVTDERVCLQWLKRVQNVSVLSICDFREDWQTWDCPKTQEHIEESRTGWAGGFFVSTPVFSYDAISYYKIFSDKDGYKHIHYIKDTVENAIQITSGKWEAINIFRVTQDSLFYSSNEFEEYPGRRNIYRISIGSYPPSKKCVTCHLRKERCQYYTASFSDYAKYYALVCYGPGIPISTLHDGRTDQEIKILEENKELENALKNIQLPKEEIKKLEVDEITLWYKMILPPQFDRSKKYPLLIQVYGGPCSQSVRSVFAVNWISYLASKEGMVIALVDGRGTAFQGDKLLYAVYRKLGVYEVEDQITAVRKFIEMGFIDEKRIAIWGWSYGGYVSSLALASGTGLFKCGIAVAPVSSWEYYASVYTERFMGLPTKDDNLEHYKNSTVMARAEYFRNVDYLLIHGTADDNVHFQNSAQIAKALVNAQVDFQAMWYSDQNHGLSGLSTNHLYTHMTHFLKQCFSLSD
Put plainly: Reactivation assay with purified FAP. The settings on record: 3 h incubation at 37° C. In kind it is biochemical. As for the experimental part:
(§1) TOP (recombinant human thimet oligopeptidase, R&D systems, Ref 3439-ZN) was diluted at 10 nM in a solution of 50 mM Tris-HCl pH 7.4/0.5M NaCl/0.1M DTT. CD26 and FAP were diluted at 1 μg/mL in a Tris-HCl pH 7.5 buffer. Reactions were initiated by addition of 50 μM of each compound to enzymes solutions (1 V enzyme solution+1 V 100 μM drug solution). Samples were incubated for 0, 1, or 3 hours at 37° C. in a water bath in the presence of purified enzymes. Fifty μL of sample were collected at each time point and processed as described above for human plasma. Activation of Suc-βALAL-dox was tested in parallel as a reference.

For a further data set, the target named is CD26 (Homo sapiens, UniProt P27487). As to the kind of experiment: Reactivation assay with purified CD26. In kind it is biochemical. The settings on record: 3 h incubation at 37° C. How it is done: as §1
The target of data set [1] is T2, CD10 (recombinant human neprilysin) (Homo sapiens, UniProt P08473).
T2 construct: purchased R&D systems 1182-ZN
As to the kind of experiment: Reactivation assay with purified CD10. It is filed as biochemical. The settings on record: 3 h at 37° C.; for % Metabolites released after 3 h (CD10 10 nM) / CD10 10 nM (cleavage +/−): 50 μM compound.

Data set [2] deals with T3, TOP (recombinant human thimet oligopeptidase) (Homo sapiens, UniProt P52888).
T3 construct: purchased R&D systems 3439-ZN
As to the kind of experiment: Reactivation assay with purified TOP. In kind it is biochemical. The settings on record: 3 h at 37° C.; for % Metabolites released after 3 h (TOP 5 nM) / TOP 5 nM (cleavage +/−): 50 μM compound. As for the experimental part:
as §1

For data set [3], the system named is LS-174T tumor cell secreted peptidases. Put plainly: Reactivation assay in LS174T tumor cell conditioned medium. It is filed as biochemical, human. The settings on record: for activation by tumor cell secreted enzymes (in words): LS174T tumor cell conditioned medium. How it is done: Sub-confluent cultures of LS-174T tumor cells were washed twice with a saline phosphate buffer solution, and fresh culture medium (DMEM-F12 without phenol red) containing 0.02% bovine serum albumin is added (100 μl/cm^2). After 24 hours incubation, the conditioned medium is collected, centrifuged for 10 minutes at 300 g, buffered with 1 M Tris-HCl, pH 7.4 (1 volume of buffer+19 volumes of medium) and concentrated 20 times by […] (cutoff threshold of 10 kDa).
Drug compounds (50 μM) were incubated for 0, 1, 3 or 5 hours at 37° C. in the presence of freshly prepared LS174T tumor cell conditioned medium. Fifty μL of sample were collected at each time point and processed as described above for human plasma.

Data set [4] is described as follows: Stability in citrated human blood. The settings on record: 5 hours incubation at 37° C. in citrated human blood, 50 μM.
Data set [5] in a line: Stability in citrated human plasma. The settings on record: 5 hours incubation at 37° C. in citrated human plasma (pH7), 50 μM. How it is done:
The drug conjugates (50 μM) were mixed with human plasma and incubated for 5 hours at 37° C. in a water bath. […] Supernatant was collected.

The target in data set [6] is dihydrofolate reductase (DHFR) (Homo sapiens, UniProt P00374). The settings on record: cited from earlier work.
Data set [7] can be described thus: In vivo toxicity after single iv bolus injection (body weight). Set-up: species or system OF-1 mice. How it is done:
FIG. 1. Effect of PhAc-peptide-Dox conjugates on the body weight of OF-1 normal mice (n=4). […] Results represent the mean body weight evolution.
The in vivo toxicity was evaluated by monitoring body weight.

A further data set has as its system tumor cell lines. The settings on record: cited from earlier work.

T3 sequence (P52888 whole entry): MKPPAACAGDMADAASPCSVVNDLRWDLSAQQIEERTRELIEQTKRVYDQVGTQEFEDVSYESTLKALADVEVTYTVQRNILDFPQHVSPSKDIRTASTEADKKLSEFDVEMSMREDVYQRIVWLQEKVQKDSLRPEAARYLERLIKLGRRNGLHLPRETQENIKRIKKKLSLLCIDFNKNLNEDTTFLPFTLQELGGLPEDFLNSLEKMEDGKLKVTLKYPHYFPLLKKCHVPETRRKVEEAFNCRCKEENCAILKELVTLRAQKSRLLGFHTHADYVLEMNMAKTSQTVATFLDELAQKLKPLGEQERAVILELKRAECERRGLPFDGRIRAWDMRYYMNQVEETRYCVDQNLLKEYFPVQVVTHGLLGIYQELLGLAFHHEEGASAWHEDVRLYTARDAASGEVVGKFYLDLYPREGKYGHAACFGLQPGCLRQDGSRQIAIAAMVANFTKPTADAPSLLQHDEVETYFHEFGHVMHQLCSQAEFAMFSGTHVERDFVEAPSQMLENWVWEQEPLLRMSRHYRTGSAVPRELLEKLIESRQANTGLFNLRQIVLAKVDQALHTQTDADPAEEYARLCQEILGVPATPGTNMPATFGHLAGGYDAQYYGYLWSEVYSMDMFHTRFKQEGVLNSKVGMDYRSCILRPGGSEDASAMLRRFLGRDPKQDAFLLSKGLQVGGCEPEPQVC
T2 sequence (P08473 52-750 limits assumed): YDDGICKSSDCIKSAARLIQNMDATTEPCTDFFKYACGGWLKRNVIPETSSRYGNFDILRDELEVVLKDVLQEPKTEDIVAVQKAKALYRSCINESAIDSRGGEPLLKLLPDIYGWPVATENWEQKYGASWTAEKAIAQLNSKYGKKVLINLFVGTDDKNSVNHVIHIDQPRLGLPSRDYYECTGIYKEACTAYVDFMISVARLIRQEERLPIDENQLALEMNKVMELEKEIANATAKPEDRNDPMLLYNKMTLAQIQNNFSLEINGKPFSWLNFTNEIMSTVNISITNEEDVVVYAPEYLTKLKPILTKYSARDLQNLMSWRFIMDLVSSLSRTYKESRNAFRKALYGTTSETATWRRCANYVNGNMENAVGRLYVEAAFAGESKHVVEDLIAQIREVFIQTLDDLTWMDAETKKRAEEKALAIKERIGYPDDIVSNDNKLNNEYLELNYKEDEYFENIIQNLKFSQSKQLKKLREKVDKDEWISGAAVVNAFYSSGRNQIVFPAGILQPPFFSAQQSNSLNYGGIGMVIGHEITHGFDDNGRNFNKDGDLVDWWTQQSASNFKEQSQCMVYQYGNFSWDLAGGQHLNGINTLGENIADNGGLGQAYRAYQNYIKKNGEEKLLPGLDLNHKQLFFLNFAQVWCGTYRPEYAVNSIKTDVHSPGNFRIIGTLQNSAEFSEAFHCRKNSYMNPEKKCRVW
dihydrofolate reductase (DHFR), sequence (P00374 whole entry, species assumed): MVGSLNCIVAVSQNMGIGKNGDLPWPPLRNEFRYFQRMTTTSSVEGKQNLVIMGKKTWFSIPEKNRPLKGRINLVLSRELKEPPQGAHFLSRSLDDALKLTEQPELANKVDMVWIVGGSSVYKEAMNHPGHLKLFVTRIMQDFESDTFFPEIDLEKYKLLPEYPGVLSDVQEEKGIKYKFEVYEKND
CD26, sequence (P27487 whole entry): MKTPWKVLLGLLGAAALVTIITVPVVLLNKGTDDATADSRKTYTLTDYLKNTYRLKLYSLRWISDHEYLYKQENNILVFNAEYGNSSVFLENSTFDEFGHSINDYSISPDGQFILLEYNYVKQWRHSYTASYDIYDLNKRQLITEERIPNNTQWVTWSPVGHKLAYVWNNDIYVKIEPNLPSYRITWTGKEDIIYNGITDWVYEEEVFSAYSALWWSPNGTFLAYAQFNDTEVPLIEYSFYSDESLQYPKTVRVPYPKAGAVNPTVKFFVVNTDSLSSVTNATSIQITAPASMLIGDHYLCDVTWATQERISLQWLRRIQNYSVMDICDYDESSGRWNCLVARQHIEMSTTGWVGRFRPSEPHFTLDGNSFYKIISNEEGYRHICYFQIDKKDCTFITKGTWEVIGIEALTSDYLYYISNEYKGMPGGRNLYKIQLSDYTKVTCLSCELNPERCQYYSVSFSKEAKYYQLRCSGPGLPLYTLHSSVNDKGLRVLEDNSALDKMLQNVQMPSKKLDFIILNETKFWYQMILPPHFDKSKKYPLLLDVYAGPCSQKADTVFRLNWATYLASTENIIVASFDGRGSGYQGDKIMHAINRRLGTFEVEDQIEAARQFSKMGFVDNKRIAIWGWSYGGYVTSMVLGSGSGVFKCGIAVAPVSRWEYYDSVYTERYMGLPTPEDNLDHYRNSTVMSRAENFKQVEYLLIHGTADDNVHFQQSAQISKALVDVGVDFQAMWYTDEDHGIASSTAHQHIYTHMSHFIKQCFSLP

Take `COc1cccc2c1C(=O)c1c(O)c3c(c(O)c1C2=O)C[C@@](O)(C(=O)CO)C[C@@H]3O[C@H]1C[C@H](NC(=O)[C@@H]2CCCN2C(=O)CN)[C@H](O)[C@H](C)O1` [GP-Dox, NH2-Gly-Pro-Doxorubicin]: the “conversion to Dox by FAP” value with FAP amounted to 62%. Besides, in the data set with CD26, the “conversion to Dox by CD26” value came to 97%.
Regarding PhAc-AIGP-doxorubicin, the “% Metabolites released after 3 h (CD10 10 nM)” value in [1] is 18% and 18 ± 3%. Moreover, in data set [2], the “cleavage by TOP (in words)” value is “not cleaved”, the “% Metabolites released after 3 h (TOP 5 nM)” value was less than 5% and the “TOP 5 nM (cleavage +/−)” value is given as “−* (*less than 5% of metabolites detected)”. The “% Metabolites released after 5 h (LS174T CM20xcc)” value (“% Metabolites released after 5 h” for short) in data set [3] (5 h at 37° C., 50 μM compound) came to 3 ± 3%. Further, the “LS174T CM20xcc (activation +/−)” value in data set [3] (5 h at 37° C., conditioned medium concentrated 20 times, 50 μM compound) is “−* (*less than 5% of metabolites detected)”. In data set [3], the “activation by tumor cell secreted enzymes (in words)” value (“activation … (in words)” for short) is “not activated”.
For the compound PhAc-TSGP-doxorubicin, in [1], the “cleavage by CD10 (in words)” value was “not or very slightly activated” and the “% Metabolites released after 3 h (CD10 10 nM)” value is given as 0%. The “% Metabolites released after 3 h (TOP 5 nM)” value in [2] is 38% and 38 ± 2%. Moreover, the “% Metabolites released after 5 h” value in data set [3] (5 h at 37° C., 50 μM compound) turned out to be 35 ± 18%. Also, the “activation … (in words)” value in [3] is listed as “mainly GP-Dox is detected”.
Turning to `COc1cccc2c1C(=O)c1c(O)c3c(c(O)c1C2=O)CC(O)(C(=O)CO)CC3OC1CC(NC(=O)C(Cc2ccccc2)NC(=O)C2CCCN2C(=O)C(CC(C)C)NC(=O)C(C)NC(=O)CP(=O)(O)O)C(O)C(C)O1` (stereo not shown) [PhAc-ALPF-Dox, PhAc-ALPF-doxorubicin], in data set [4], the “% metabolites released: Dox” value was determined as 4%, the “% metabolites released: F-Dox” value was found to be 1% and the total % metabolites is 5%. Moreover, the “% Metabolites released after 3 h (CD10 10 nM)” value in data set [1] amounted to 0%. In data set [2], the “% Metabolites released after 3 h (TOP 5 nM)” value is less than 5% and the “TOP 5 nM (cleavage +/−)” value is given as “−* (*less than 5% of metabolites detected)”. In data set [5], the “% metabolites released: Dox” value is 0%, the “% metabolites released: F-Dox” value is 0% and the total % metabolites is reported as 0%. Further, in data set [3] (5 h at 37° C., 50 μM compound), the “% Metabolites released after 5 h” value was determined as 11 ± 6%. The “activation … (in words)” value in data set [3] is reported as “activated into F-Dox”.
As to Methotrexate, the “affinity for DHFR relative to folate” value in [6] is given as roughly 1000 fold.
As for PhAc-DLGP-doxorubicin, in [1], the “cleavage by CD10 (in words)” value is “not or very slightly activated” and the “% Metabolites released after 3 h (CD10 10 nM)” value is listed as 0%. Also, in data set [2], the “cleavage by TOP (in words)” value is “not cleaved” and the “% Metabolites released after 3 h (TOP 5 nM)” value is 0%. Further, the “% Metabolites released after 5 h” value in [3] (5 h at 37° C., 50 μM compound) is 0%. Also, the “activation … (in words)” value in [3] is listed as “not activated”.
Regarding `COc1cccc2c1C(=O)c1c(O)c3c(c(O)c1C2=O)CC(O)(C(=O)CO)CC3OC1CC(NC(=O)C(CC(C)C)NC(=O)C(C)NC(=O)C(CC(C)C)NC(=O)C(C)NC(=O)CP(=O)(O)O)C(O)C(C)O1` (stereo not shown) [PhAc-ALAL-Dox, PhAc-ALAL-doxorubicin], in data set [4], the “% metabolites released: AL-Dox” value was 0%, the “% metabolites released: Dox” value came to 9%, the “% metabolites released: L-dox” value came out at 6% and the total % metabolites amounted to 15%. In [1], the “cleavage by CD10 (in words)” value is listed as “not efficiently cleaved” and the “CD10 10 nM (cleavage +/−)” value is “−* (*less than 5% of metabolites detected)”. Moreover, the “% Metabolites released after 3 h (TOP 5 nM)” value in [2] was 44% and 44 ± 6%. In addition, in [5], the “% metabolites released: AL-Dox” value is recorded as 0%, the “% metabolites released: Dox” value is recorded as less than 1%, the “% metabolites released: L-dox” value was found to be 2% and the total % metabolites came to 2%. Also, in data set [7] (80 μmol/kg single iv), the “body weight loss (in words)” value is “No significant body weight loss”. Besides, the “toxicity (in words)” value in [7] (160 μmol/kg single iv) was “high toxicity”. Moreover, the “% Metabolites released after 5 h” value in [3] (5 h at 37° C., 50 μM compound) turned out to be 65 ± 19%. Further, the “activation … (in words)” value in data set [3] is “activated”.
Turning to PhAc-GPGP-doxorubicin, in data set [1], the “cleavage by CD10 (in words)” value was “not or very slightly activated” and the “% Metabolites released after 3 h (CD10 10 nM)” value came to 0%. Also, in data set [2], the “cleavage by TOP (in words)” value is listed as “not cleaved” and the “% Metabolites released after 3 h (TOP 5 nM)” value was 0%. Further, in data set [3] (5 h at 37° C., 50 μM compound), the “% Metabolites released after 5 h” value came to 0%. Further, the “activation … (in words)” value in data set [3] is given as “not activated”.
PhAc-KLGP-doxorubicin: in data set [1], the “cleavage by CD10 (in words)” value is on record as “not or very slightly activated”, the “% Metabolites released after 3 h (CD10 10 nM)” value is less than 5% and the “CD10 10 nM (cleavage +/−)” value is given as “−* (*less than 5% of metabolites detected)”. Besides, in data set [2], the “% Metabolites released after 3 h (TOP 5 nM)” value was 31% and 31 ± 5%. Also, in data set [3] (5 h at 37° C., 50 μM compound), the “% Metabolites released after 5 h” value is 39 ± 13%. Moreover, the “activation … (in words)” value in [3] is reported as “mainly GP-Dox is detected”.
Regarding `COc1cccc2c1C(=O)c1c(O)c3c(c(O)c1C2=O)CC(O)(C(=O)CO)CC3OC1CC(NC(=O)C(Cc2ccccc2)NC(=O)C(C)NC(=O)C(CC(C)C)NC(=O)C(C)NC(=O)CP(=O)(O)O)C(O)C(C)O1` (stereo not shown) [PhAc-ALAF-Dox, PhAc-ALAF-doxorubicin], in data set [4], the “% metabolites released: Dox” value was 5%, the “% metabolites released: F-Dox” value came out at 5% and the total % metabolites is on record as 10%. Further, in data set [1], the “cleavage by CD10 (in words)” value is on record as “moderately cleaved” and the “% Metabolites released after 3 h (CD10 10 nM)” value amounted to 24 ± 5%. In [2], the “% Metabolites released after 3 h (TOP 5 nM)” value is given as less than 5% and the “TOP 5 nM (cleavage +/−)” value is “−* (*less than 5% of metabolites detected)”. For the same compound, in [5], the “% metabolites released: Dox” value worked out at 0%, the “% metabolites released: F-Dox” value is on record as 2% and the total % metabolites was determined as 2%. Also, the “% Metabolites released after 5 h” value in [3] (5 h at 37° C., 50 μM compound) is reported as 32 ± 15%. Besides, the “activation … (in words)” value in data set [3] is reported as “activated into F-Dox”.
As to `COc1cc2cc(c1Cl)N(C)C(=O)C[C@H](OC(=O)[C@H](C)N(C)C(C)=O)[C@]1(C)O[C@H]1[C@H](C)[C@@H]1C[C@@](O)(NC(=O)O1)[C@H](OC)/C=C/C=C(\C)C2` [Maytansine], in the data set with tumor cell lines, the “fold higher cytotoxicity than the Vinca alkaloids” value is “about 100 fold” and the “fold higher toxicity than doxorubicin” value is recorded as “about 1000 fold”.

The values above are taken from patent publication US10076576B2, “Minimally toxic prodrugs” (priority 2012, dated 2018).
